The values that follow come from patent US4000269A, “S-(α-substituted-arylmethylthio, -arylmethylsulfinyl, and -arylmethylsulfonyl)methyl phosphorus esters used as insecticides” (priority 1975, dated 1976).

Common to all, as to assay type: in vivo
Assay [1] concerns Two-spotted Spider Mite (Tetranychus urticae). Description: E. Two-spotted Spider Mite plant-dip test. The following applies: 48 h, read-out: Percent Mortality, Two-spotted Spider Mite; for mortality at 100 ppm: 2 days. The method, then: Sieva lima bean plants with primary leaves 3 to 4 inches long are infested with about 100 adult mites per leaf 4 hours before use in this test. The mite and egg infested plants are dipped for 3 seconds in the same solutions used in the aphid test, and the plants set in the hood to dry. They are held for 2 days at 80° F., 60% R.H., and the adult mite mortality estimated on one leaf under a steroscopic microscope. The other leaf is left on the plant an additional 5 days and then examined at 10 X power to estimate the kill of eggs and of newly hatched nymphs, giving a measure of ovicidal and residual action, respectively.

In assay [2] the test system is Malaria Mosquito (Anopheles quadrimaculatus). Briefly: H. Malaria Mosquito Adult Test. Conditions: 24 h, adults, 1 day, read-out: Percent Mortality, Malaria Mosquito. The method, then:
Solutions of 65% acetone/35% water containing 10 ppm. of test compound are poured into wide-mouth 2-ounce jars, each containing a microscope slide. The slides are removed from the test solution with forceps and laid horizontally to dry on a wide-mouth 4-ounce bottle. When dry, they are placed in the same 4-ounce bottle and 10 4- to 5-day-old mosquitoes of mixed sexes are added to each bottle. A piece of cotton gauze held on by an elastic band serves as a lid, and wad of cotton soaked in 10% honey solution serves as food. Mortality counts are made after 1 day at 80° F., 50% R.H. (relative humidity) Data obtained with the above procedures are reported in Table II below.

The test system of assay [3] is Mexican Bean Beetle (Epilachna varivestis). Description: F. Mexican Bean Beetle leaf-dip test. Conditions: 48 h, 2 days, read-out: Percent Mortality, Mexican Bean Beetle. The protocol: Compounds to be tested are made up as 100 or 10 ppm. solutions in 65 % acetone/35 % water. Sieva lima bean leaves are dipped in the test solution and set in the hood to dry. When dry, they are placed in 4 -inch petri dishes which have a moist filter paper in the bottom, and 10 third-instar bean beetles are added to each dish. The dishes are covered and held at 80° F., 60 % R.H. After 2 days, mortality counts and estimates of the amount of feeding are made. Compounds showing kills greater than 75 % are further tested at tenfold dilutions in 65 % acetone/35 % water.

For the next assay, the system named is Bean Aphid (Aphis fabae). Description: C. Bean Aphid spray test. The following applies: 48 h, 2 days, read-out: Percent Mortality, Bean Aphid. The method, then:
Compounds are tested at 100 , 10 and 1 ppm. in solution or suspension in 65 % acetone/35 % water. Two-inch fiber pots each containing a nasturtium plant 2 inches high and infested with about 150 aphids 2 days earlier, are placed on a turntable (4 RPM) and sprayed for two revolutions with a No. 154 DeVilbiss Atomizer at 20 psi. air pressure. The spray tip is held about 6 inches from the plants, and the spray is directed so as to give complete coverage of the aphids and the plants. The sprayed plants are laid on their sides on white enamel trays. Mortality estimates are made after holding for 2 days at 70° F. and 50% R.H.

Assay [4] has as its system Southern Armyworm (Prodenia eridania). Description: D. Southern Armyworm leaf-dip test. The following applies: Spodoptera eridania, 48 h, 2 days, read-out: Percent Mortality, Southern Armyworm. The protocol:
Compounds are tested at 1000 and 100 ppm. in solution or suspension in 65 % acetone/35 % water. Sieva lima bean primary leaves are dipped for 3 seconds in the test solution and set in a hood on a screen to dry. When dry, each leaf is placed in a 4 -inch petri dish which has a moist filter paper in the bottom and ten third-instar armyworm larvae about 3/8 inch long. The dishes are covered and held at 80° F., and 60 % R.H. After 2 days, mortality counts and estimates of the amount of feeding are made. Compounds showing partial kill and/or inhibition of feeding are held an extra day for further observations.

Assay [5] concerns Boll Weevil (Anthonomus grandis). Description: B. Boll Weevil leaf-dip test. Conditions: 48 h, 100 ppm., 2 days, read-out: Percent Mortality, Boll Weevil. The method, then: Test compounds are prepared as 1000 ppm. solutions in 10 % acetone, 0.2 % Alrodyne 315 , and 89.8 % water. A tenfold dilution is made with 65 % acetone and 35 % water. The first or second true leaf of young cotton plants is dipped for 3 to 5 seconds in the test solution and placed in an exhaust hood to dry. When dry, each leaf is placed in a 4 -inch petri dish with a moist filter paper on the bottom. Ten adult boll weevils are removed from the stock culture and placed in the petri dish. The dishes are covered and held at 80° F. and 50 % R.H. After 2 days, mortality counts are made.

The subject of assay [6] is Western Potato Leafhopper (Empoasca abrupta). Description: G. Western Potato Leafhopper plant-dip test. Conditions: 48 h, 2 days, read-out: Percent Mortality, Western Potato Leafhopper. The protocol:
Sieva lima bean plants with the primary leaf expanded to 3 to 4 inches are dipped into 100 or 10 ppm. 50 % acetone/50 % water solutions and set in the hood to dry. A 1 -inch piece of the tip of a treated leaf is cut off and placed in a 4 -inch petri dish with a moist filter paper in the bottom. From 3 to 10 second-instar nymphs are tapped from the culture plants into the test dish and rapidly covered. Mortality counts are made after 2 days at 80° F., and 50 % R.H.

In assay [7] the test system is Tarnished Plant Bug (Lygus lineolaris). Description: A. Tarnished Plant Bug leaf-dip test. The following applies: 48 h, 100 ppm., 2 days, read-out: Percent Mortality, Tarnished plant Bug. The method, then: Test compounds are prepared as 1000 ppm. solutions in 10 % acetone, 0.2 % Alrodyne 315 , and 89.8 % water. A tenfold dilution is made with 65 % acetone and 35 % water. The primary leaves of Sieva lima bean plants are dipped for 3 to 5 seconds in the test solutions and placed in an exhaust hood to dry. When dry, each leaf is placed in a 4 -inch petri dish with a moist filter paper on the bottom. Ten adult Lygus bugs are aspirated from the stock culture and placed in the petri dish. The dishes are covered and held at 80° F. and 50 % R.H. After 2 days, mortality counts are made.

The subject of assay [8] is Southern corn rootworm larvae (Diabrotica undecimpunctata). Briefly: Southern Corn Rootworm Control (treated soil, dust on talc). The following applies: 144 h, potting soil, mortality after 6 days, read-out: Percent Control of Southern Corn Rootworm Larvae; for mortality at 1120.85 g/ha: 1 lbs./Acre; for mortality at 11208.5 g/ha: 10 lbs./Acre; for mortality at 56042.5 g/ha: 50 lbs./Acre. The method, then: Compounds are prepared as dusts on talc. The compounds are dissolved in acetone, and appropriate rates obtained by serial dilution. One and one-quarter milliliters of solution is pipetted onto a standard volume of dust in 1 -ounce jars, and the acetone allowed to evaporate. Twenty-five milliliters of moist soil and about 200 millet seeds are placed in the jar, capped and the contents thoroughly mixed. Ten second-instar larvae of the Southern corn rootworm (Diabrotica undecimpunctata ) are then placed in each jar. Mortality counts are made after 6 days and percent mortality determined.

Take `COP(=S)(OC)SCSC(C)(C)c1ccc(Br)cc1` [drawing 19]: the mortality at 100 ppm turned out to be 100% in [1]; 100% with Bean Aphid (Aphis fabae); 100% in assay [4]; 100% in assay [5]; 100% in assay [6]; 40% in [7]. Further, the mortality at 300 ppm in assay [1] worked out at 100%. In addition, the mortality at 10 ppm is 75% in [2], 0% in assay [3], 100% with Bean Aphid (Aphis fabae) and 0% in assay [6]. Also, the mortality at 1 ppm in the assay with Bean Aphid (Aphis fabae) worked out at 100%. Also, the mortality at 1000 ppm in [4] was determined as 100%.

On to `CCOP(=S)(OCC)SCSC(C)(C)c1ccccc1` [drawing 6], for which the mortality at 100 ppm in assay [1] turned out to be 75%; in [3] it was 100%; in the assay with Bean Aphid (Aphis fabae) it was 100%; in [4] it was 100%; in [5], 95%; in assay [6], 100%. For the same compound, in assay [7], the mortality at 100 ppm amounted to 94%. Also, the mortality at 10 ppm in [2] was determined as 100%; in assay [3], 40%; in the assay on Bean Aphid (Aphis fabae) it was 100%; in assay [6] it was 100%. Also, the mortality at 1 ppm in the assay on Bean Aphid (Aphis fabae) was found to be 85%. The mortality at 1000 ppm in assay [4] was 100%.

On to `CCOP(=S)(OCC)SCSC(C)(CC)c1ccccc1` (stereo not drawn) [Example 21, S-(α-Ethyl-α-methylbenzylthio)methyl O,O-Diethyl Phosphorodithioate], for which, in [8], the mortality at 1120.85 g/ha amounted to 0%, the mortality at 11208.5 g/ha stood at 100% and the mortality at 56042.5 g/ha is 100%.

In the case of `CCOP(=S)(OCC)SCSC(C)(C)c1cccc(C)c1` [Example 14, S-(m,α,α-Trimethylbenzylthio)methyl O,O-Diethyl Phosphorodithioate], in assay [8], the mortality at 1120.85 g/ha was 100%, the mortality at 11208.5 g/ha is 100% and the mortality at 56042.5 g/ha is 100%.

As for `CCOP(=S)(OCC)SCSC(C)(C)c1cc(Cl)ccc1Cl` [Example 10, S-(2,5-Dichloro-α,α-dimethylbenzylthio)-methyl O,O-Diethyl Phosphorodithioate], in [8], the mortality at 1120.85 g/ha came to 0%, the mortality at 11208.5 g/ha is 100% and the mortality at 56042.5 g/ha turned out to be 100%.

On to `CCOP(=S)(OCC)SC[S+]([O-])C(C)(C)c1ccccc1` (stereo not shown) [drawing 8], for which the mortality at 100 ppm in assay [1] came to 100%; in assay [3], 100%; in the assay on Bean Aphid (Aphis fabae) it was 100%; in [4], 80%; in assay [5], 100%; in [6], 100%. The mortality at 100 ppm in [7] was found to be 0%. Moreover, in assay [1], the mortality at 300 ppm is 100%. In addition, the mortality at 10 ppm in [3] stood at 40%; with Bean Aphid (Aphis fabae), 100%; in assay [6], 100%. Also, the mortality at 1 ppm with Bean Aphid (Aphis fabae) was found to be 100%. For the same compound, the mortality at 1000 ppm in [4] came to 100%.

Consider `COP(=S)(OC)SCSC(C)(C)c1cc(Cl)ccc1Cl` [drawing 10], for which the mortality at 100 ppm in assay [1] was 100%; in the assay on Bean Aphid (Aphis fabae) it was 100%; in [4] it was 100%; in assay [5], 90%; in [6] it was 100%; in assay [7], 60%. For the same compound, the mortality at 300 ppm in [1] was determined as 100%. Also, the mortality at 10 ppm was 70% in assay [2], 100% in the assay on Bean Aphid (Aphis fabae) and 40% in assay [6]. The mortality at 1 ppm with Bean Aphid (Aphis fabae) was 50%. Further, the mortality at 1000 ppm in [4] was found to be 100%.

On to `CCOP(=S)(OCC)SCSC(C)(C)c1cccc(C)c1` [drawing 17], for which the mortality at 300 ppm in [1] amounted to 0%. Also, the mortality at 10 ppm worked out at 0% in [2] and 100% in the assay with Bean Aphid (Aphis fabae). Moreover, in the assay with Bean Aphid (Aphis fabae), the mortality at 1 ppm was 0%. Moreover, the mortality at 100 ppm stood at 100% with Bean Aphid (Aphis fabae), 20% in assay [4], 0% in assay [6] and 0% in assay [7]. For the same compound, the mortality at 1000 ppm in assay [4] was determined as 100%.

In the case of `COP(=S)(OC)SCSC(C)(C)c1ccccc1` [drawing 13], the mortality at 100 ppm in assay [1] came out at 100%; in assay [3], 80%; in the assay on Bean Aphid (Aphis fabae) it was 100%; in [4], 100%; in assay [5] it was 100%; in assay [6] it was 100%. Also, the mortality at 100 ppm in assay [7] was determined as 90%. The mortality at 300 ppm in assay [1] came to 100%. In addition, the mortality at 10 ppm is 80% in assay [3], 100% in the assay with Bean Aphid (Aphis fabae) and 100% in assay [6]. Further, the mortality at 1 ppm in the assay with Bean Aphid (Aphis fabae) was 80%. In addition, the mortality at 1000 ppm in [4] turned out to be 100%.

Regarding `CCOP(=S)(OCC)SCSC(CC)(CC)c1ccccc1` [Example 22, S-(α,α-Diethylbenzylthio)methyl O,O-Diethyl Phosphorodithioate], in assay [8], the mortality at 1120.85 g/ha stood at 50%, the mortality at 11208.5 g/ha was 100% and the mortality at 56042.5 g/ha came out at 100%.

On to `COP(=S)(OC)SCSC(C)(C)c1ccc(C#N)cc1` [Example 24, S-(p-Cyano-α,α-dimethylbenzylthio)methyl O,O-Dimethyl Phosphorodithioate], for which, in assay [8], the mortality at 1120.85 g/ha was determined as 0%, the mortality at 11208.5 g/ha stood at 100% and the mortality at 56042.5 g/ha worked out at 100%.
